Assay [1] concerns basophils. The assay can be described thus: Basophil Activation Test (BAT), CD63, whole blood. The format is cell-based, human. The conditions noted are these: 24 hours versus 2 hours drug exposure. As for the experimental part: (§1) The BAT was conducted as set forth in Santos (2021) Allergy, 76:2420-2432. Blood from six healthy donors was drawn and Compound 128 was added at various concentrations (10 μM, 3.16 μM, 1 μM, 0.3 μM, 0.1 μM, 0.03 μM, or 0 μM). Blood samples were gently rocked at room temperature for 2 hours, 24 hours, or 48 hours. The BAT assay using the Flow Cast Basophil Activation Kit (Buhlmann Diagnostics; Catalog #B-CCR-STCON) was then conducted following manufacturer instructions by (1) stimulating the blood with anti-FcεR stimulation control in stimulation buffer with IL-3 and staining cells for CCR3 and CD63 for 15 minutes at 37° C., (2) lysing red blood cells and fixing cells with Lysing Reagent at room temperature for 10 minutes, (3) washing cells with Wash Buffer, and (4) acquiring data on a flow cytometer. Activated basophils were defined as CCR3+, low side scatter and CD63+. Percent of activated basophils was calculated as number of activated basophils over the total number of basophils. A four-parameter logistic regression was applied to determine the EC50 and EC90.

Assay [2] relates to basophils. In words: Comparison of BTK inhibitors by BAT (CD63, CD203c). In kind it is cell-based, human. The following applies: concentration of 1 μM, 2 hours, blood from a healthy donor. As for the experimental part: as §1, with “The” for “The BAT was conducted as set forth in Santos (2021) Allergy, 76:2420-2432. Blood from six healthy donors was drawn and Compound 128 was added at various concentrations (10 μM, 3.16 μM, 1 μM, 0.3 μM, 0.1 μM, 0.03 μM, or 0 μM). Blood samples were gently rocked at room temperature for 2 hours, 24 hours, or 48 hours. The”
Blood samples were gently rocked at room temperature for 2 hours. […] Activated basophils were also defined as CCR3+, low side scatter and CD203c+.

Assay [3] has as its system basophils. The assay can be described thus: Anti-IgE induced IL-4 production from basophils in whole blood. In kind it is cell-based, human. The following applies: whole blood from a healthy donor, two hours treatment, anti-IgE six hours. As for the experimental part:
Human mast cells lines, ROSA with wildtype KIT and ROSA […] with D816V KIT mutation (ISM-like cells), were licensed from CRNS Innovation and cultured with or without stem cell factor (100 ng/ml), respectively (FIG. 12A). ROSA cells were stimulated with IL-4 (20 ng/ml; R&D Systems) for 18 hours, stained for FcεRIα (Becton Dickinson) for 30 minutes on ice, washed twice with FACS buffer and data was acquired on a flow cytometer. The median fluorescence intensity of FcεRIα was measured. […] Whole blood from a healthy donor was treated with Compound 128 for two hours and the basophils were stimulated with anti-IgE (1 μg/mL; Beckman Coulter) for six hours (FIG. 12B). Plasma was collected and IL-4 levels were measured using the BD CBA human soluble protein master buffer kit and BD CBA human soluble protein flex set for IL-4 (Becton Dickinson). A four-parameter logistic regression analysis was performed on the cytokine levels to determine the EC50 and EC90. […] Therefore, Compound 128 may indirectly effect FcεRI expression by the reduction of IL-4 levels.

The next assay deals with MRGPRX2. The assay can be described thus: MRGPRX2-mediated cytokine production in ISM-like mast cells. In kind it is cell-based, human. As for the experimental part: (§2) Human mast cells were differentiated from bone marrow CD34+ cells from four healthy donors and were cultured in the presence of SCF (100 ng/mL) to mimic mast cells in ISM and treated with Compound 128 for two hours prior to stimulation. Mas-related G protein-coupled receptor (MRGPRX2) agonists, Compound 48/80 (C48/80; a product of N-methyl-p-methoxyphenethylamine with formaldehyde) or Substance P (SP) were used to activate the MRGPRX2 pathway. For pBTK test, cells were stimulated with C48/80 (10 μg/mL) for ten minutes at 37° C. and cells were stained. The median fluorescence intensity of phosphorylated BTK was measured. The fold change over unstimulated control for pBTK was calculated. For cytokine test, cells were stimulated with C48/80 (10 μg/mL) or SP (30 μM) for four hours at 37° C. Supernatant was collected and cytokine levels were measured using the BD Cytometric Bead Array (CBA) human soluble protein master buffer kit (Becton Dickinson) and BD CBA human soluble protein flex sets for IL-8, MCP-1, GM-CSF and IL-13 (Becton Dickinson). Cytokine levels were measured and normalized to percent of control, with 0% representing the level of the unstimulated control.

Assay [4] relates to mast cells derived from ISM patients. The assay can be described thus: Degranulation of mast cells grown from CD34+ blood cells from ISM patients (FIG. 22). In kind it is cell-based, human. The conditions noted are these: antigen stimulation in absence of SCF.
A further assay deals with mast cells. In words: Downstream signaling proteins in antigen-stimulated mast cells (FIG. 20). In kind it is cell-based. The following applies: mast cells stimulated with an antigen.
The target in assay [5] is T1, BTK (Homo sapiens, UniProt Q06187). In words: BTK phosphorylation in mast cells (FIG. 19). The format is cell-based. Details: endogenous in cells. The following applies: correlating with calcium signaling, CD63, CD203c, histamine release.
T1 sequence (Q06187 whole entry): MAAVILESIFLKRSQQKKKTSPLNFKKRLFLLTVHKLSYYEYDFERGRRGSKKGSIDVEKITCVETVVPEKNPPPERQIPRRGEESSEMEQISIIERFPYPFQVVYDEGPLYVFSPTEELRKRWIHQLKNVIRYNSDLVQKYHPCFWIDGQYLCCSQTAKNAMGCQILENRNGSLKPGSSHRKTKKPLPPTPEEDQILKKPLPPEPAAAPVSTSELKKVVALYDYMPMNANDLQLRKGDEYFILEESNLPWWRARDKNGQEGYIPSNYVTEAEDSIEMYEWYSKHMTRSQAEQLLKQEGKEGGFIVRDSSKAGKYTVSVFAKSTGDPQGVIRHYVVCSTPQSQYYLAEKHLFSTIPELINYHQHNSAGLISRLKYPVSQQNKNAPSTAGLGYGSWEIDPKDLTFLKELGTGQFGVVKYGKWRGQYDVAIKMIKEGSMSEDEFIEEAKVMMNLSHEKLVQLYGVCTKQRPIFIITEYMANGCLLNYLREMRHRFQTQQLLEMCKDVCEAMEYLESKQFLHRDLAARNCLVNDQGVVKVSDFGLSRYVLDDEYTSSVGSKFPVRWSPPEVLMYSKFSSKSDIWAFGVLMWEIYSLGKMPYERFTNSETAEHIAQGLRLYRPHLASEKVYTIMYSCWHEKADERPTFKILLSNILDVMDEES
The target in assay [6] is T1, BTK. In words: MRGPRX2-induced BTK phosphorylation in ISM-like mast cells. The format is cell-based. Details: Human mast cells were differentiated from bone marrow CD34+ cells from six healthy donors; endogenous in cells; host or cells: human mast cells differentiated from bone marrow CD34+ cells of healthy donors, cultured with SCF. The following applies: 0.1 μM, C48/80 stimulation. As for the experimental part:
as §2

Each structure is given as a SMILES string.

With `C=CC(=O)N1CCC(F)(CNc2ncnc(N)c2-c2ccc(Oc3ccccc3)cc2)CC1` [Compound 128, 1-(4-(((6-amino-5-(4-phenoxyphenyl)pyrimidin-4-yl)amino)methyl)-4-fluoropiperidin-1-yl)prop-2-en-1-one], the “potency increase after 24 hours drug exposure” value in the assay with basophils [1] is reported as “approximately 4 fold”. Besides, in the assay on basophils [2], the “basophil activation (CD63+, CD203c+)” value was “fully inhibits basophil activation”. The “IgE-mediated IL-4 production” value in the assay with basophils [3] is given as “potently inhibited”. In addition, the MRGPRX2-mediated cytokine production result in the assay with MRGPRX2 (0.1 μM) is “partially inhibited”; with MRGPRX2 (0.5 and 1 μM) it was “inhibition of cytokine production was increased”. Besides, the C48/80-mediated cytokine production result with MRGPRX2 (Compound 48/80 agonist) is given as “partial inhibition”. Moreover, in the assay with MRGPRX2 (Substance P (SP) agonist), the SP-mediated cytokine production entry is “fully inhibited”. Moreover, the “degranulation of ISM patient-derived mast cells” value in assay [4] was “inhibited the degranulation”. Besides, in the assay on mast cells, the “activation of multiple downstream signaling proteins” value is reported as “can be inhibited”. Moreover, at BTK [5], the “inhibition of BTK phosphorylation in mast cells” value was “high potency”. In addition, the “MRGPRX2-induced BTK phosphorylation” value at BTK [6] was “inhibited”.

(Values after patent US20250360130A1, “METHODS OF TREATING INDOLENT SYSTEMIC MASTOCYTOSIS” (Telios Pharma Inc., priority 2024, published 2025).)
